# Laboratory results taken from US20050080045A1, “Composition comprising dextrinsulfate for the treatment of sexual transmitted diseases (std)” (priority 2001, published 2005).
# What was measured:
# HSV-1 = assay: HSV plaque reduction assay in Vero cells (HSV-1); format: cell-based, Herpes Simplex Virus; details: mean of two determinations
# Protocol: (§1) Dextrin sulphate was added to the cell culture and then removed following an incubation period. Virus was then added as it is thought that dextrin sulphate attaches to cell receptors, thereby blocking subsequent viral entry. Following incubation with virus, dextrin sulphate in carboxylmethyl cellulose was added. This medium was used to form a gel layer to prevent any intracellular virus (that has bypassed the dextrin sulphate-cell receptor blocking interaction) from further infecting other cells.
# (§2) • (i) Seed 24 well cell culture plates with Vero cells (2×10^5 cells/ml/well). Prepare one plate per virus plus 2 plates for controls. • (ii) Grow cells to confluency overnight at 37° in 5% CO2. • (iii) Dilute virus as calculated to give about 100 plaques per well, a minimum volume of 5 ml per plate.
# Plate Layout. Dextrin sulphate (D.S.) concentrations are in mg per ml.
# • (iv) Pipette cell medium off all wells except the cell control wells. • (v) Inoculate the appropriate well with 1 ml Dextrin sulphate made up in Minimum Essential Medium as per above layout. • (vi) Incubate the plate at 37° C. in CO2 incubator for 1 hour. • (vii) Remove Dextrin sulphate. • (viii) Inoculate 200 μl of virus dilution per well. • (ix) Incubate the plate at 37° C. in CO2 incubator for 1 hour. • (x) Add 1 ml Dextrin sulphate in CMC to appropriate wells, incubate the plates at 37° C. in CO2 incubator for 60 hours. • (xi) Fix with 10% formalin in PBS by topping up the wells, leave for a minimum of 1 hour. • (xii) Decant formalin, rinse plate in water, stain with crystal violet for 5-10 mins, rinse and drain. Leave plates to dry before counting.
# (xiii) Count plaques, calculate IC50 by Grafit.
# [1] = tested on: Chlamydia trachomatis Sa2f strain; assay: Chlamydia trachomatis cell culture assay (inclusion bodies in McCoy cell monolayers); format: cell-based
# Protocol: McCoy cell monolayers were prepared on coverslips in plastic Bijoux. Cells were infected with Chlamydia trachomatis either alone or in the presence of dextrin sulphate. The Sa2f strain of C. trachomatis was used. Sa2f, which causes lymphogranuloma venereum, is similar to C. trachomatis. It is a heavily passaged laboratory strain which can infect McCoy cells without the need for spinning (for most strains of C. trachomatis, it is necessary to spin the cells onto the monolayers in the presence of cyclohexamide in order for infection of the monolayers to occur).
# After incubation, coverslips were fixed and stained for C. trachomatis. The number of inclusion bodies per coverslip was estimated by fluorescence microscopy.
# HSV-2 = assay: HSV plaque reduction assay in Vero cells (HSV-2); format: cell-based, Herpes Simplex Virus; details: mean of two determinations
# Protocol: as §1, §2
# Plate Layout. Dextrin sulphate (D.S.) concentrations are in mg per ml. […]
substance,measurement,setting,value
dextrin sulphate,IC50,"HSV-1; DM-21, Laboratory HSB-1 ACV resistant",910 µg/mL
same,IC50,HSV-1; HSV-1 ACV resistant,2770 µg/mL
same,IC50,HSV-1; HSV-1 ACV sensitive,1130 µg/mL
same,IC50,"HSV-1; SC-16, Laboratory HSV-1 ACV sensitive",330 µg/mL
same,Inhibition (Expt. 2.1.1),[1]; Sa2f preincubated with dextrin sulphate before infecting the cell line,inhibition by dextrin
same,Inhibition (Expt. 2.1.2),[1]; dextrin sulphate preincubated with the cell line before infection with Sa2f,inhibition by dextrin
same,course of inhibitory activity (Expt. 2.3.1),[1]; larger infecting doses of Sa2f (400 inclusion bodies in 30 fields),plateaued off
same,course of inhibitory activity (Expt. 2.3.2),[1]; lower infecting doses (40 inclusion bodies in 30 fields),plateaued off
same,inhibition (Expt. 2.3.2),"[1]; lower infecting doses (40 inclusion bodies in 30 fields), dextrin sulphate 1000 μg/ml",b) 80-90% inhibition
same,Inhibition (Expt. 2.3),[1]; use of different infecting doses of Sa2f,inhibition by dextrin
same,IC50,HSV-2; HSV-2 ACV resistant,4 µg/mL
same,IC50,HSV-2; HSV-2 ACV sensitive,110 µg/mL
